Test results taken from patent US11370779B2, “Pharmaceutical composition for preventing or treating acute myeloid leukemia or metastatic breast cancer” (PELEMED CO., LTD., priority 2017, dated 2022).
Like-named read-outs stand apart in the source and are kept apart here.

How the values were obtained:
[1] = tested on: MV4;11 xenograft; assay: MV4;11 mouse tumor xenograft, intravenous LDD1937; format: in vivo
Description: The drug or the control PBS was injected daily for a duration of 21 days.

[2] = molecular target: cMET (Homo sapiens (Human), UniProt P08581); assay: cMET in vitro kinase HTRF assay; format: biochemical; details: mean ± S.D.
Description: (§1) Inhibition of the FLT3 kinase activity was measured using homogeneous, time-resolved fluorescence (HTRF) assays. Recombinant proteins containing the FLT3 kinase domain were purchased from Carna biosciences (Japan). Optimal enzyme, ATP, and substrate concentrations were established using the HTRF KinEASE kit (Cisbio, France) according to the manufacturer's instructions. The FLT3 enzymes were mixed in sequence with diluted compounds and peptide substrates in a kinase reaction buffer (50 mM HEPES (pH 7.0), 500 μM ATP, 0.1 mM sodium orthovanadate, 5 mM MgCl2, 1 mM DTT, 0.01% bovine serum albumin (BSA), and 0.02% NaN3). After the addition of the reagents for detection, the TR-FRET signal was measured using a Victor multilabel reader (Perkin Elmer, Waltham, Mass., USA). The IC50 was calculated by nonlinear regression using Prism version 5.01 (GraphPad). JAK2, JAK3, cMET, and RET in vitro kinase assays were also performed using the HTRF assay.

[3] = tested on: MV4;11 cells; assay: Cell viability, EZ-Cytox tetrazolium assay, MV4;11; format: cell-based, human
Description: The cultured cells were incubated at 3° C. with 5% CO2.
(§2) Cell viability was assessed by a tetrazolium-based assay using the EZ-Cytox Cell Viability Assay kit (DaeilLab, Korea). Briefly, 2,000 to 15,000 cells were plated in 96-well plates in 100 μl of medium. The next day, the cells were treated with compounds together with dimethyl sulfoxide (DMSO) as a negative control. Three days (72 hours) after the drug addition, 15 μl of the EZ-Cytox kit reagent was added to each well of the 96-well plate and then incubated at 37° C. in a humidified CO2 incubator for 4 hours. After incubation, the optical density (OD) was measured at a wavelength of 450 nm using a Victor multilabel reader (Perkin Elmer, Waltham, Mass., USA).

[4] = tested on: PC-3 cells; assay: Cytotoxicity assay, PC-3; format: cell-based; details: Homo sapiens, mean ± S.D.
Description: MDA-MB-231 (metastatic breast cancer, ATCC HTB-26), Jurkat (human acute T lymphocytic leukemia, ATCC TIB-152), and K-562 (human chronic myelogenous leukemia, ATCC CCL-243) cells were cultured in RPMI-1640 (Sigma Co.). MCF7 (human breast adenocarcinoma, ATCC HTB-22) and PC-3 (human prostate adenocarcinoma, ATCC CRL-1435) cells were cultured in DMEM (Sigma Co.) medium supplemented with 10% fetal bovine serum and 1% penicillin/streptomycin. The cultured cells were incubated at […] with 5% CO2. Cell viability was assessed by a tetrazolium-based assay using the EZ-Cytox Cell Viability Assay kit (DaeilLab, Korea). […] The next day, the cells were treated with compounds together with dimethyl sulfoxide (DMSO) as a negative control. Three days (72 hours) after the drug addition, 15 μl of the EZ-Cytox kit reagent was added to each well of the 96-well plate and then incubated at 37° C. in a humidified CO2 incubator for 4 hours. After incubation, the optical density (OD) was measured at a wavelength of 450 nm using a Victor multilabel reader (Perkin Elmer, Waltham, Mass., USA). The IC50 was calculated by nonlinear regression using Prism version 5.01 (GraphPad, La Jolla, Calif., USA).

[5] = molecular target: FLT3 kinase (Homo sapiens (Human), UniProt P36888); assay: In vitro FLT3 kinase HTRF assay (Example 2); format: biochemical; details: FLT3 vs JAK2, JAK3, cMET, IRAK4
Description: as §1, with “The IC50 was calculated by nonlinear regression using Prism version 5.01 (GraphPad).” left out

[6] = tested on: MOLM14 Wild type; assay: Cell proliferation MTT assay, MOLM14 wild type; format: cell-based; details: Homo sapiens, MOLM-14
Description: (§4) MOLM14 were purchased from the ATCC and the cells were maintained in RPMI medium (Hyclone) with 10% Fetal bovine serum (Gibco) and 1% penicillin/streptomycin.

[7] = tested on: MDA-MB-231; assay: Cell viability, EZ-Cytox tetrazolium assay, MDA-MB-231; format: cell-based, human; details: Homo sapiens, MDA-MB-231; 72 hours
Description: MDA-MB-231 (metastatic breast cancer, ATCC HTB-26), Jurkat (human acute T lymphocytic leukemia, ATCC TIB-152), and K-562 (human chronic myelogenous leukemia, ATCC CCL-243) cells were cultured in RPMI-1640 (Sigma Co.). MCF7 (human breast adenocarcinoma, ATCC HTB-22) and PC-3 (human prostate adenocarcinoma, ATCC CRL-1435) cells were cultured in DMEM (Sigma Co.) medium supplemented with 10% fetal bovine serum and 1% penicillin/streptomycin. The cultured cells were incubated at 3° C. with 5% CO2.
as §2, with “USA). The IC50 was calculated by nonlinear regression using Prism version 5.01 (GraphPad, La Jolla, Calif., USA).” for “USA).”

[8] = tested on: PC3 (prostate cancer); assay: WST anti-proliferative assay, PC3; format: cell-based; details: Homo sapiens, read-out: % inhibition at 1 μM, PC3
Description: (§3) (Table 6) Compound 33 (LDD-2635) was tested at 8 concentrations to measure their anti-proliferative effects on various human cancer cell lines using WST assay. The GI50 values were obtained in triplicate and the error bars represent the standard error of the mean.

[9] = tested on: HepG2 (liver cancer); assay: WST anti-proliferative assay, HepG2; format: cell-based; details: Homo sapiens
Description: as §3

[10] = tested on: HCT-116 (colon cancer); assay: WST anti-proliferative assay, HCT-116; format: cell-based; details: Homo sapiens, HCT-116, read-out: % inhibition at 1 μM, HCT-116
Description: as §3

[11] = tested on: SK-OV-3 (ovarian cancer); assay: WST anti-proliferative assay, SK-OV-3; format: cell-based; details: Homo sapiens, SK-OV-3, read-out: % inhibition at 1 μM, SK-OV-3
Description: as §3

[12] = tested on: MOLM14 FLT3-ITD-D835Y; assay: Cell proliferation MTT assay, MOLM14-ITD-D835Y; format: cell-based, human; details: Homo sapiens, MOLM-14
Description: as §4
Mutagenesis is performed in FLT3-ITD MSCV plasmid using Q5 site-directed mutagenesis kit (E05545). […] Retroviral particles were produced by transiently transfecting HEK293T cells with Retroviral vectors together with packaging vectors, GPE and VSVG. 48 h after transfection, media containing viral particles were collected and filtered for infection. Viral particles were infected to MOLM14 cells and 48 h after infection, infected cells were selected with puromycin (1 μg/mL).

[13] = tested on: MV4-11 cells; assay: Cytotoxicity WST assay, MV4-11 (Example 3); format: cell-based, human; details: for GI50: Homo sapiens, MV4-11, WST assay
Description: Test 96-well plates were incubated at 37° C. with 5% CO2 for 72 h. After 72 h incubation, 10 μL of the EZ-Cytox kit reagent from EZ-cytox Cell viability assay kit (DaeilLab, Korea) were added to each well of the 96-well plate and then incubated at 37° C. with 5% CO2 for 3 h. […] The IC50 values were calculated with nonlinear regression analysis using OriginPro 9.1 software (OriginLab, Northampton, Mass.). […] The GI50 values were obtained in triplicate and the error bars represent the standard error of the mean.

[14] = tested on: MV4-11 xenograft; assay: MV4-11 mouse tumor xenograft, oral administration
Description: The drug or the control PBS was administered daily for a duration of 21 days. Tumor sizes were measured twice a week for 21 days, and the tumor volumes were calculated with the following formula: V (volume)=X (length)×D (width)2/2. After 21 days, the mice were sacrificed, and the tumor weights were measured.
An in vivo MV4-11 xenograft study was performed to determine the efficacy of the indirubin derivatives. MV4-11 cells were subcutaneously injected into BALB/c nu/nu mice, and tumors were allowed to grow to a size of approximately 100 mm^3.

[15] = tested on: MOLM14 FLT3-ITD (MOLM14-ITD); assay: Cell proliferation MTT assay, MOLM14-ITD; format: cell-based; details: Homo sapiens, MOLM-14
Description: as §4
Viral particles were infected to MOLM14 cells and 48 h after infection, infected cells were selected with puromycin (1 μg/mL).

[16] = tested on: MDA-MB-231 xenograft; assay: MDA-MB-231 mouse tumor xenograft; format: in vivo; details: 20 mg/kg/p.o/day, 4 weeks
Description: 6-weeks-old Balb/c nu/nu mice (female) were purchased from Central Lab. Animal Inc. to be used. […] The candidate substances LDD-2614 (Compound 21), 2633 (Compound 28), 2634 (Compound 34), 2635 (Compound 33) were administered at 20 mg/kg/p.o/day, and doxorubicin, which was a control, was administered at 5 mg/kg/i.p (once a week) for 4 weeks.

[17] = tested on: A549 (lung cancer); assay: WST anti-proliferative assay, A549; format: cell-based; details: Homo sapiens, A549, read-out: % inhibition at 1 μM, A549
Description: as §3

[18] = Homo sapiens, MV4-11, 72 hours, read-out: GI50(nM) MV4;11

Sequence of cMET (P08581 25-1390): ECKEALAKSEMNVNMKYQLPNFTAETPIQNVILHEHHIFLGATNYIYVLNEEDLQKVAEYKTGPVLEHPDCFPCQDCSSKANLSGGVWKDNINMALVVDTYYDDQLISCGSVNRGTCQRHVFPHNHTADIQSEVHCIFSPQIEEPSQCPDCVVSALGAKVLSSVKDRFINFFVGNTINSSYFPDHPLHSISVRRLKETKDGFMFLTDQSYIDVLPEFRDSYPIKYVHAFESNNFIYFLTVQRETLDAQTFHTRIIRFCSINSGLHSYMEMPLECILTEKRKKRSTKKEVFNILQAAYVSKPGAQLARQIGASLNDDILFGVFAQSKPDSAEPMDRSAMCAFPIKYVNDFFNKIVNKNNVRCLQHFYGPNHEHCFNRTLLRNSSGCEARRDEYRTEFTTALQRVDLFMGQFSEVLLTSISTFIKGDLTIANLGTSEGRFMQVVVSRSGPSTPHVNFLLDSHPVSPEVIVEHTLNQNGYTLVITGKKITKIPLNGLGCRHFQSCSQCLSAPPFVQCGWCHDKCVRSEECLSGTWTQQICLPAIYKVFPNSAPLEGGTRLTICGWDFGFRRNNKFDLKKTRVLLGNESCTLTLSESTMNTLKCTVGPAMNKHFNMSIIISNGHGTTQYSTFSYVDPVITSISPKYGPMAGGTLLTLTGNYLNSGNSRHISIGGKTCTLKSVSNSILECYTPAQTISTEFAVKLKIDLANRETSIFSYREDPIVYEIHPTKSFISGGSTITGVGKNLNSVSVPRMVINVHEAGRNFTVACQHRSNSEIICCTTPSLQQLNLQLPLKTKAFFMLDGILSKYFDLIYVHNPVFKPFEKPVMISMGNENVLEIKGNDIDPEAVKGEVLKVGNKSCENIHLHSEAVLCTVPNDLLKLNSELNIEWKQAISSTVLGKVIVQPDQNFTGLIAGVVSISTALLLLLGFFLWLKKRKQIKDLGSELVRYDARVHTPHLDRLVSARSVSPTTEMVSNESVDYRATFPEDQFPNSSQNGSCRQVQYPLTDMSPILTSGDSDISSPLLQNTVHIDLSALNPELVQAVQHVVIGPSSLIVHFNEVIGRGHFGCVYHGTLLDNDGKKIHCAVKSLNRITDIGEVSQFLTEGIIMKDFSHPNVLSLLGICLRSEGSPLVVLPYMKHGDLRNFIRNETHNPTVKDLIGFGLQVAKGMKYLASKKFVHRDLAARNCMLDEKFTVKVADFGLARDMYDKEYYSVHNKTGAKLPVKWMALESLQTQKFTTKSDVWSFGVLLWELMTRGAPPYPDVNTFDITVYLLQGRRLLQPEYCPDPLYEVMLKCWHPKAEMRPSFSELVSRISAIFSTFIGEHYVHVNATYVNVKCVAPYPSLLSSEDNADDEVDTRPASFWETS
Sequence of FLT3 kinase (P36888 610-943): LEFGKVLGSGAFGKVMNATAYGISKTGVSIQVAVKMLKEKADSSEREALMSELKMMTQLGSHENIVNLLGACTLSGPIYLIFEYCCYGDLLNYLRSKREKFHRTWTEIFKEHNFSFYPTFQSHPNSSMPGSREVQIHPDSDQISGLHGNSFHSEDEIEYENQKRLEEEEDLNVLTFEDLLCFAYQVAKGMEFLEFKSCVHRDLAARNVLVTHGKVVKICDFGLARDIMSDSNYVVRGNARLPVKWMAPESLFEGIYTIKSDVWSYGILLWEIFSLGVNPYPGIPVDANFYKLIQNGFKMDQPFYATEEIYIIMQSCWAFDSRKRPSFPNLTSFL

Structure (SMILES): COC(=O)c1ccc2c(c1)/C(=C1/Nc3ccccc3/C1=N\OCCN1CCNCC1)C(=O)N2.Cl.Cl [Compound 4, Methyl (2Z,3E)-2′-oxo-3-((2-(piperazin-1-yl)ethoxy)imino)-[2,3′-biindolinylidene]-5′-carboxylate dihydrochloride]
- day from which the tumor disappeared ([1]; 10 mg/kg i.v. daily, based on measured tumor volume): 3 days
- body weight during the administration period ([1]; 5 or 10 mg/kg i.v., 21 days, between groups): no significant difference in body weight
- IC50 [2]: 0.25 ± 0.074 µM
- increase of activity against MV4;11 compared to Compound 1 [3]: 40 fold
- GI50 [3, 18]: 1 nM
- IC50 ([3]; Homo sapiens, MV4-11, Table 1, 72 hours): 1 nM
- GI50 ([3]; Homo sapiens, MV4-11, Table 4, mean ± S.D., read-out: GI50 (μM) MV-4-11): 1.2 ± 0.15 nM
- GI50 [4]: 1.1 ± 0.14 µM
- difference in the IC50 between FLT3 and other kinases [5]: ≥ 170 fold

Structure (SMILES): Cl.Cl.O=C1Nc2ccc(F)cc2/C1=C1/Nc2ccccc2/C1=N\OCCN1CCNCC1 [Compound 33, (2Z,3E)-5′-fluoro-3-((2-(piperazin-1-yl)ethoxy)imino)-[2,3′-biindolinylidene]-2′-one dihydrochloride]
- GI50 [6]: 4.88 nM
- GI50 [7]: 117 nM
- inhibition at 1 µM [8]: 40.7%
- GI50 [9]: 1.1 ± 0.2 µM
- inhibition at 1 µM [10]: 38.5%
- inhibition at 1 µM [11]: 16%
- GI50 [12]: 1.87 nM
- GI50 [3, 18]: 1 nM
- times more sensitive against MV4-11 cells than K562 cell line [13]: 430 times
- GI50 ([13]; Table 6, read-out: GI50 value (μM) MV4-11): 0.001 ± 0.0003 µM
- GI50 ([13]; read-out: GI50 MV4-11 cells): 0.001 µM
- weight loss or other signs of toxicity during the administration period ([14]; 20 mg/kg oral once daily for 21 days): no weight loss or any other signs of toxicity
- day by which the tumor disappeared ([14]; 20 mg/kg oral once daily, based on measured tumor volume): ≤ 14 days
- GI50 [15]: 1.85 nM
- weights of the liver and the kidney [16]: no significant difference
- inhibition at 1 µM [17]: 2.05%
